ChEMBL document CHEMBL1201862, “PubChem BioAssay data set” (2004)
The source made the active and inactive calls.

Columns and labels:
[1] = target: T1, Calpain-2 catalytic subunit (Sus scrofa, UniProt P43367); assay: pig calpain II inhibitor potency, dose response, biochemical, fluorogenic peptide substrate (AID 1420); assay type: functional
T1 sequence (P43367 whole entry): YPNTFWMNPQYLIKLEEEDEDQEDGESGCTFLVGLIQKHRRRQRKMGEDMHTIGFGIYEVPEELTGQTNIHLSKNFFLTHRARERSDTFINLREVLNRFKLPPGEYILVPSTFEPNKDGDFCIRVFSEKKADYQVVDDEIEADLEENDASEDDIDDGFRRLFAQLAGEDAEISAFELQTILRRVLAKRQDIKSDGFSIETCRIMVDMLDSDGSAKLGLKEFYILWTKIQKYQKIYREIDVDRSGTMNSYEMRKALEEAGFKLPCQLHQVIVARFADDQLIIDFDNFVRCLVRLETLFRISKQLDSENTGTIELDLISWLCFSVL

Leucine aminopeptidase = target: T2, Leucine aminopeptidase (Plasmodium falciparum 3D7, UniProt Q8IL11); assay: P. falciparum M17LAP inhibitors, primary screen, biochemical, fluorogenic H-Leu-NHMec substrate, 1536-well (AID 1619); assay type: functional
T2 sequence (Q8IL11 whole entry): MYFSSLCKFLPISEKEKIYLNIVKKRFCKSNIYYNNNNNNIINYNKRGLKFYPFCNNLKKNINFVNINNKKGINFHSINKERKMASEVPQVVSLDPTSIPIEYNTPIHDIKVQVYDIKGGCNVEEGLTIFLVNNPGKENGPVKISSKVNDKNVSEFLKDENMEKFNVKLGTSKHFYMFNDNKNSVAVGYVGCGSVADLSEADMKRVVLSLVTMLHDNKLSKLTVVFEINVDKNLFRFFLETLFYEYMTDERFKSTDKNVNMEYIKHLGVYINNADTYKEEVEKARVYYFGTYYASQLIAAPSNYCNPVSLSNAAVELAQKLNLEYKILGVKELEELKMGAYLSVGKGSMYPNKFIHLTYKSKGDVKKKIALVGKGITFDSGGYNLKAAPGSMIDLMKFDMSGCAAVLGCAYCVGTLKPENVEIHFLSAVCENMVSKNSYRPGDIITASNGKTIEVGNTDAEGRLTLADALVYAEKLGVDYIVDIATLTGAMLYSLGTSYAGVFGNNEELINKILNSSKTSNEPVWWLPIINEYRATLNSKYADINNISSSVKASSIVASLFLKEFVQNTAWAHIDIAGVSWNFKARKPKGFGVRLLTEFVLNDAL

[2] = cytotoxicity in OVCAR8 ovarian cancer cells, dose response, PAX8 project, cell-based, plate reader, dry powder samples (AID 743197); assay type: functional; details: OVCAR-8
Paired box protein Pax-8 = Paired box protein Pax-8 (Homo sapiens, UniProt Q06710); assay: inhibitors of PAX8-driven TPO luciferase reporter, dose response, RMG-I cells, cherry-pick (AID 687027); assay type: functional, cell-based;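 further: luciferase reporter driven by Pax8 target thyroperoxidase promoter measured by SteadyGlo luminescence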
[3] = target: T3, Short transient receptor potential channel 4 (Mus musculus, UniProt Q9QUQ5); assay: mouse TRPC4 channel inhibitors, dose response, cell-based, HEK293 TRPC4/mu-opioid, Fluo-4 calcium (AID 434942); assay type: functional;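 further: potency of inhibitors blocking the TRPC4 calcium response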
T3 sequence (Q9QUQ5 whole entry): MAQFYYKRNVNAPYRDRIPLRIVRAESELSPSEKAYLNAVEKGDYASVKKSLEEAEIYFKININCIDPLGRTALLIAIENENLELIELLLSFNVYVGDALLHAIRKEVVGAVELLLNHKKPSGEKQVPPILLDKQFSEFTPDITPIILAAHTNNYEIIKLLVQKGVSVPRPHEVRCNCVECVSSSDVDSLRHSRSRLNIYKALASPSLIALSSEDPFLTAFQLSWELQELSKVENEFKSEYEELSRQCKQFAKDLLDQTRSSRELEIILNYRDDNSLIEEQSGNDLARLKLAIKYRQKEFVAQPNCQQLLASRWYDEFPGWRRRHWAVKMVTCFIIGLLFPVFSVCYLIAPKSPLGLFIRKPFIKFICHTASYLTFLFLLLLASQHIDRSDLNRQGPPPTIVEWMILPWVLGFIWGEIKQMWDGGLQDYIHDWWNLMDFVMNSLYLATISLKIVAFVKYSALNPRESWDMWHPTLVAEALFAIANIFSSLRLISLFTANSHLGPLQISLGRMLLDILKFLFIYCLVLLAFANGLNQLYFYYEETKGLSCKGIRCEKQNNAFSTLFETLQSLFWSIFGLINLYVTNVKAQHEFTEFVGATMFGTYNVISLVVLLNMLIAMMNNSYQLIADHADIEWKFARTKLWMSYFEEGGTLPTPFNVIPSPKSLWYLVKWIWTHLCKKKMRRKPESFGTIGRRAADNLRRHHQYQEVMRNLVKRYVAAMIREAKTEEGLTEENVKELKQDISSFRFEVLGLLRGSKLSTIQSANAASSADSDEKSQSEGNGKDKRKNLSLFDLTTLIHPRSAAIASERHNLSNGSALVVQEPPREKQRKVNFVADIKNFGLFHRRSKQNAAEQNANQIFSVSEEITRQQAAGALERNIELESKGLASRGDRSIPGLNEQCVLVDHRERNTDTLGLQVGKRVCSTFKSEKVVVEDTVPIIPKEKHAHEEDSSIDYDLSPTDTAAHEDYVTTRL

cells [4] = assay type: functional, cell-based
Cytochrome P450 2C9 = Cytochrome P450 2C9 (Homo sapiens, UniProt P11712)
cells [5] = assay type: functional, cell-based; remark: listed apart in the source
Cytochrome P450 1A2 = target: T4, Cytochrome P450 1A2 (Homo sapiens, UniProt P05177);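 further: PubChem cytochrome P450 panel assay, CYP1A2 panel member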
T4 sequence (P05177 whole entry): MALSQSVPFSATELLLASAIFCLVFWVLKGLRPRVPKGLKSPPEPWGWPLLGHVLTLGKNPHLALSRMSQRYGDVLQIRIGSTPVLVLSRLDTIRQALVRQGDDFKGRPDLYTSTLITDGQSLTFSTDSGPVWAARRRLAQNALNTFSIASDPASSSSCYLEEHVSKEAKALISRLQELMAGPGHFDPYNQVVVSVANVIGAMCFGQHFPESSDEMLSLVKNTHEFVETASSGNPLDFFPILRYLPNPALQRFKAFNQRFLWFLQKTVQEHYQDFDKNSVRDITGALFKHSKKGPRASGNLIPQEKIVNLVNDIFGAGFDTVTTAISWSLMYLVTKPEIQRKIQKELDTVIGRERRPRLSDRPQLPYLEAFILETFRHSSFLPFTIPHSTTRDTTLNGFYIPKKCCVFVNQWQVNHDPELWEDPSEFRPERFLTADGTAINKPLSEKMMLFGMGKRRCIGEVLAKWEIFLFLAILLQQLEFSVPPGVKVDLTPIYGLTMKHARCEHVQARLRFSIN

Prothrombin = Prothrombin (Homo sapiens, UniProt P00734); assay: Thrombin 1536 HTS Dose Response Confirmation. [Related pubchem assays: 1046 (Thrombin 1536 HTS; hits were confirmed in this assay)]; assay type: functional
[6] = inhibitors of SNCA 5'UTR-driven reporter translation, confirmation, H4 neuroglioma cells, luminescence (AID 1988); assay type: functional, cell-based
[7] = Luminescence Cell-Based Dose Response HTS to Identify Inhibitors of 5'UTR Stem-Loop Driven Prion Protein mRNA Translation in H4 Neuroglioblastoma Cells. [Related pubchem assays: 1827 (Project Summary), 1813 (Primary HTS)]; assay type: functional
[8] = inhibitors of firefly luciferase expression or activity, dose response, H4 neuroglioma cells, luminescence (AID 1990); assay type: functional, cell-based
HEK293 = assay: inhibitors of LMP1-driven NF-kB reporter, dose response, cell-based, HEK293, luciferase, cherry-pick (AID 588343); assay type: functional, Homo sapiens; details: Homo sapiens, HEK293
Large T antigen = Large T antigen (Simian virus 40, UniProt P03070); assay type: functional, Betapolyomavirus macacae;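 further: Confirmatory-stage PubChem screen for compounds that inhibit SV40 T antigen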
[9] = target: Alkaline phosphatase, placental type (Homo sapiens, UniProt P05187); assay: PLAP enzyme inhibitors, confirmation, biochemical, luminescence (AID 1512); assay type: functional
Chain of Alkaline phosphatase, placental type (P05187 whole entry): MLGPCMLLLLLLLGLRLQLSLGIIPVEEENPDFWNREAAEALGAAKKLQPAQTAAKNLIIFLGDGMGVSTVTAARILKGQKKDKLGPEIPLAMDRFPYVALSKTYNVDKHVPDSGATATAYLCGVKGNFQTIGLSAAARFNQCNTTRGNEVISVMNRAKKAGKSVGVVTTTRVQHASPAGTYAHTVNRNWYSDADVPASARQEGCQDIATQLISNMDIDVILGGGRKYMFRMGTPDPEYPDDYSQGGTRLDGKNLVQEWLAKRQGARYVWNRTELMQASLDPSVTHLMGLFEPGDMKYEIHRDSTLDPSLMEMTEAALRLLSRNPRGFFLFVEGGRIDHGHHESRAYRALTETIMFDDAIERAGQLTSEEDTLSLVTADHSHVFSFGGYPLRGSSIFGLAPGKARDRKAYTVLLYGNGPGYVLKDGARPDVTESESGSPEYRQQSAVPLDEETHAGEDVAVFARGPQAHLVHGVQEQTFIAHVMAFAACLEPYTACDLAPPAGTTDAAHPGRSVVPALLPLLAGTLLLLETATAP

Chain of Paired box protein Pax-8 (Q06710 whole entry): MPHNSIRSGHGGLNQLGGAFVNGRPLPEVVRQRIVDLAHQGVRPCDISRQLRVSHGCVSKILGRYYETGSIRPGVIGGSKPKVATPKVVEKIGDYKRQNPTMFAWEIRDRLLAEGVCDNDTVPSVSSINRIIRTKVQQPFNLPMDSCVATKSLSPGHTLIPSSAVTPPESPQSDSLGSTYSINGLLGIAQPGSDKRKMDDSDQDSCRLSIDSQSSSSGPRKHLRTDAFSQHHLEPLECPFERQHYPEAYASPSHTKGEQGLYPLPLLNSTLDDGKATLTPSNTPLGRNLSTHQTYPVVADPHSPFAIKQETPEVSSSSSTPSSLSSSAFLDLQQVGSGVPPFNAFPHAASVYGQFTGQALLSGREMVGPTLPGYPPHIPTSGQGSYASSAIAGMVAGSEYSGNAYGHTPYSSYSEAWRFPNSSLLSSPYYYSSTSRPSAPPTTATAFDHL
Chain of Large T antigen (P03070 whole entry): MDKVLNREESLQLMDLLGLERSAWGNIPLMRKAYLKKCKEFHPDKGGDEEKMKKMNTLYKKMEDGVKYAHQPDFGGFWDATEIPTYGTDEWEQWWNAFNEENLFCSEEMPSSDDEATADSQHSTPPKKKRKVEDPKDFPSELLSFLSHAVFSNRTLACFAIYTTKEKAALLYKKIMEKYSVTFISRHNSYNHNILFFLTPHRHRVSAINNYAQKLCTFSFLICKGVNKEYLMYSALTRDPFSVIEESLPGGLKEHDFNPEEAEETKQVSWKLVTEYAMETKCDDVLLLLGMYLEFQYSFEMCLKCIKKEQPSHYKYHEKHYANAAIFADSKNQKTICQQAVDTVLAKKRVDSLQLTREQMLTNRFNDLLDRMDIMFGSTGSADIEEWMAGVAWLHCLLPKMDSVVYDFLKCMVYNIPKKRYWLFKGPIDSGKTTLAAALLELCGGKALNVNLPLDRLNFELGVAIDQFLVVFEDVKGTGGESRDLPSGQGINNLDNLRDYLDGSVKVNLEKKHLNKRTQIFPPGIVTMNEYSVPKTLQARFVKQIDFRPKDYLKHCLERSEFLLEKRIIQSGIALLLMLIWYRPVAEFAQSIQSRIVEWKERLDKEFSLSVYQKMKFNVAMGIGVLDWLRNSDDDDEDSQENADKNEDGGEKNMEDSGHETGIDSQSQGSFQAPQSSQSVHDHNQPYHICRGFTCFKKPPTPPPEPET
Chain of Cytochrome P450 2C9 (P11712 whole entry): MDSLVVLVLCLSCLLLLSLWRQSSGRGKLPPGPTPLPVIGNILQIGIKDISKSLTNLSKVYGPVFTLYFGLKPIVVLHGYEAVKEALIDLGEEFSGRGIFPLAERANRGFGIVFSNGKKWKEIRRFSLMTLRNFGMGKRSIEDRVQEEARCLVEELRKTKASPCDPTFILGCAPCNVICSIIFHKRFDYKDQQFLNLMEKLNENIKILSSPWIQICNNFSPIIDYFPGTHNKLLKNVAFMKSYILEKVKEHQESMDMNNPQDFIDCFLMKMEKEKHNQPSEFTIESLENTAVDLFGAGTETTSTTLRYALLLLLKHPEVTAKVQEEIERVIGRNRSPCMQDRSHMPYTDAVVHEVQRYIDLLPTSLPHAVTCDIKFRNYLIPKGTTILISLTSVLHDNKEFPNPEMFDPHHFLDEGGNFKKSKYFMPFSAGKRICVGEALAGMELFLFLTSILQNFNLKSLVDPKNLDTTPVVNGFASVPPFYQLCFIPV

For `CC(=O)C(=NNc1ccc(-n2ccc(C(F)(F)F)n2)cc1)C(C)=O`, the IC50 [1] was 2.57 µM (active).
For `Cc1ccc(C(=O)Nc2nc(=O)n(C(=O)C3CC3)s2)cc1`, the IC50 (Leucine aminopeptidase) was 19.3 µM (active).
For `C[C@@H]1CN([C@H](C)CO)C(=O)c2c(c3ccccc3n2C)-c2ccccc2CO[C@H]1CN(C)C(=O)Nc1cccc(C(F)(F)F)c1`, the AC50 [2] was > 70 µM (inactive) and the AC50 (Paired box protein Pax-8) was 5.56 µM (active).
With `C[C@@H]1CN([C@@H](C)CO)C(=O)c2c(c3ccccc3n2C)-c2ccccc2CO[C@H]1CN(C)S(=O)(=O)c1ccccc1F` the AC50 [2] was > 70 µM (inactive) and the AC50 (Paired box protein Pax-8) was 5.88 µM (active).
With `OCC1(Cc2ccccc2)CCN(Cc2ccc(C(F)(F)F)cc2)CC1` the EC50 [3] was 2.11 µM (active).
For `Cc1ccc(Cn2ccc(NC(=O)C3C4CCC(C4)C3C(=O)O)n2)cc1` (stereo unspecified), the IC50 (Leucine aminopeptidase) was 10.2 µM (active).
For `COc1cc(C(=O)Oc2ccccc2/C=N/NC(=O)c2ccc(C)cc2)cc(OC)c1OC`, the EC50 (cells [4]) was > 350 µM (not active), the AC50 (Cytochrome P450 2C9) was 0.316 µM (inconclusive) and the EC50 (cells [5]) was > 350 µM (not active). For the same compound, the AC50 (Cytochrome P450 1A2) was 2.24 µM (inconclusive).
With `O=C(c1ccc(-c2ccc([N+](=O)[O-])cc2)o1)N1CCCCC1` the IC50 (Prothrombin) was > 50 µM (not active).
In the case of `CCc1cc(C(=O)N/N=C/c2ccc(O)cc2O)c2ccccc2n1`, the EC50 [6] is reported as 7.63 µM (active), the EC50 [7] is reported as 13.3 µM (active) and the EC50 (cells [4]) is reported as > 350 µM (not active). The EC50 (cells [5]) was 9.29 µM (active) and the EC50 [8] was 16.7 µM (active).
In the case of `CC(=O)n1nc(-c2cccc(C)c2)nc1SCC(=O)Nc1ccccc1`, the IC50 (Prothrombin) is reported as 0.731 µM (active).
In the case of `CCc1ccc(N2CC(C(=O)Nc3ccccc3F)CC2=O)cc1` (stereo unspecified), the IC50 (Prothrombin) is reported as > 50 µM (not active).
For `COc1cc(OC)cc(C(=O)n2cnnc2N)c1`, the IC50 (Prothrombin) was 0.1 µM (active).
For `O=C(Nc1ncccc1O)c1ccc(S(=O)(=O)NCc2ccco2)cc1`, the AC50 (HEK293) was 20.7 µM (active).
With `COc1cccc(S(=O)(=O)N(C)C[C@@H]2Oc3cc(C4=CCCCC4)ccc3S(=O)(=O)N([C@@H](C)CO)C[C@H]2C)c1` the AC50 [2] was 49.6 µM (active) and the AC50 (Paired box protein Pax-8) was 14.5 µM (active).
For `CCOc1cc(N2CCOCC2)c(OCC)cc1NC(C)C(=O)N1CCC(C)CC1` (stereo unspecified), the IC50 (Large T antigen) was 17.1 µM (active), the EC50 (cells [4]) was > 350 µM (not active) and the EC50 (cells [5]) was > 350 µM (not active).
In the case of `COC(=O)c1ccc(NC2CC(=O)N(c3ccccc3C)C2=O)cc1` (stereo unspecified), the IC50 (Prothrombin) is reported as > 50 µM (not active).
For `CC(NCCC(Cc1ccccc1)c1ccco1)c1ccccc1` (stereo unspecified), the EC50 [3] was 1.68 µM (active).
In the case of `COc1ccccc1N1CCc2c(C)nc3c(OC)cccc3c21`, the EC50 [3] is reported as 4.73 µM (active).
In the case of `CCCc1cc(=O)[nH]c(-n2nc3c(c2O)CCCC3)n1`, the IC50 [9] is reported as > 100 µM (inactive).
In the case of `O=C(NC1(C(F)(F)F)Oc2cc(Cl)c(Cl)cc2O1)N1CCC2(CC1)OCCO2`, the IC50 [9] is reported as > 100 µM (inactive).
For `c1ccc(COC(CN2CCCCCC2)CN2CCCCCC2)cc1`, the EC50 [3] was 6.68 µM (active).
With `O=C(O)c1cccc(NC(=S)NC(=O)c2ccc(-c3ccccc3)cc2)c1` the IC50 [1] was > 50 µM (not active).
In the case of `Cc1ccc(/C=C/c2nc3ccccc3s2)s1`, the EC50 [6] is reported as 3.78 µM (active), the EC50 [7] is reported as 10.7 µM (active) and the AC50 (HEK293) is reported as 4.16 µM (active).
For `Cc1ccc(S(=O)(=O)N(C)C[C@@H]2OCCCC[C@H](C)Oc3ccc(NS(=O)(=O)c4ccc(F)cc4)cc3C(=O)N([C@H](C)CO)C[C@H]2C)cc1`, the AC50 [2] was 55.9 µM (active) and the AC50 (Paired box protein Pax-8) was 5.5 µM (active).
With `O=C(c1nc2ccccc2s1)N1CCN(c2ccccn2)CC1` the IC50 (Prothrombin) was > 50 µM (not active).
In the case of `CS(=O)(=O)c1ccc(C(=O)N2CCc3ccccc3C2)cc1`, the IC50 [1] is reported as 0.514 µM (not active).
In the case of `CCOC(=O)CCP(=O)(O)C(O)c1ccc(OC)cc1` (stereo unspecified), the IC50 (Leucine aminopeptidase) is reported as 8.59 µM (active).
For `Cc1c(CCOC(=O)c2ccc([N+](=O)[O-])cc2)sc[n+]1CC(=O)c1ccccc1`, the EC50 [3] was 5.96 µM (active).
With `CC(C)(C)SCCNS(=O)(=O)c1ccc2ccccc2c1` the IC50 [1] was > 50 µM (not active).
In the case of `Cc1cc(C)cc(Oc2nc(-c3ccccc3)cc(C)c2S(C)(=O)=O)c1`, the IC50 [1] is reported as 6.25 µM (not active).
In the case of `Cc1cccc(NC(=O)c2cnc3ccccn3c2=O)c1`, the AC50 (HEK293) is reported as 2.26 µM (active).
